Laboratory results as given in patent publication US20050239735A1, “Enhancement of immune responses” (3M Innovative Properties Company, priority 2003, published 2005).

Key:
[1] = system: adherent cells from human PBMC; experiment: Type I IFN production by adherent cells from human PBMC, virus neutralization bioassay of supernatants; type: cell-based
Description: (§1) The amount of Type I interferon (IFN) and tumor necrosis factor-α (TNF-α) produced by the cells in response to the treatment is also recorded in Table I.
(§2) Briefly, adherent cells from human PBMC were treated with 1-100 U/mL recombinant IFN-α (Lee BioMolecular, San Diego, Calif.) for 24 hours, washed, and then treated with IRM (a concentrated solution of IRM in cell culture medium was added to reach the final concentration indicated in Table I) for an additional 24 hours. A separate group of control cells were treated only with IRM for 24 hours. Cell-free supernatants were then isolated from all of the cultures and analyzed for Type I IFN or TNF-α.
(§3) Type I IFN production was assayed using a virus neutralization bioassay using A549 human lung carcinoma cells challenged with encephalomyocarditis. The details of the bioassay method have been described by G. L. Brennan and L. H. Kronenberg in “Automated Bioassay of Interferons in Micro-test Plates”, Biotechniques, June/July, 78, 1983, incorporated herein by reference. Briefly stated the method is as follows: A549 cells are incubated with dilutions of samples or a standard interferon at 37° C. for 24 hours. The incubated cells are then infected with an inoculum of encephalomyocarditis virus. The infected cells are incubated for an additional 24 hours at 37° C. before evaluating for viral cytopathic effect. The viral cytopathic effect is quantified by staining with crystal violet followed by visual scoring of the plates. Results are expressed as IFN-α reference units/mL based on the value obtained for NIH Human Leukocyte IFN standard. TNF-α production was determined by ELISA (Biosource International, Inc., Camarillo, Calif.).
(§4) Adherent cells are obtained and prepared as described in Example 1. The cells are pre-treated as described in Example 1 with either poly(I:C), recombinant IFN-γ, recombinant IFN-α, or receive no pre-treatment. The cells are washed as described in Example 1, then treated as described in Example 1 with either IRM1, IRM2, IRM3, IRM4, IRM5, IRM6, IRM7, IRM8, or IRM9 for 24 hours.
(§5) Cell free supernatants are isolated from all of the cultures and analyzed for Type I IFN or TNF-α.

[2] = system: adherent cells from human PBMC; experiment: TNF-α production by adherent cells from human PBMC, ELISA of supernatants; type: cell-based
Description: as §1, §2, §3, §4, §5

[3] = IRM1 0.3 μM for 24 hours after pre-treatment with 1-100 U/mL recombinant IFN-α for 24 hours, washed
[4] = IRM1 0.3 μM for 24 hours, no pre-treatment
[5] = IRM1 3.0 μM for 24 hours after pre-treatment with 1-100 U/mL recombinant IFN-α for 24 hours, washed
[6] = IRM1 3.0 μM for 24 hours, no pre-treatment

SMILES: Cc1nc2c(N)nc3ccccc3c2n1CC(C)(C)O [IRM1, 4-amino-α,α,2-trimethyl-1H-imidazo[4,5-c]quinoline-1-ethanol]
- IFN-α [1, 3]: 3,788 U/mL
- IFN-α [1, 4]: 5 U/mL
- IFN-α [1, 5]: 3,788 U/mL
- IFN-α [1, 6]: 5 U/mL
- TNF-α [2, 3]: 114 pg/mL
- TNF-α [2, 4]: 437 pg/mL
- TNF-α [2, 5]: 284 pg/mL
- TNF-α [2, 6]: 3295 pg/mL
